According to publication PMC10382584, “Macrocyclization of linear molecules by deep learning to facilitate macrocyclic drug candidates discovery” (Nature Communications, 2023):

Experiments:
Experiment in all cases: biochemical
Parameters in all cases: DiscoveRx KINOMEscan competition binding, percent of DMSO control signal at 100 nM
Settings in all cases: read-out: Fig. 4a / Percent Control / Compound 1; percent of DMSO control, competition binding
ADCK4 = target: T1, ADCK4 (Homo sapiens, UniProt Q96D53)
T1 construct: gene COQ8B

CAMK4 = CAMK4 (Homo sapiens, UniProt Q16566)
CDK3 = CDK3 (Homo sapiens, UniProt Q00526)
CHEK2 = CHEK2 (Homo sapiens, UniProt O96017)
ERBB2 = ERBB2 (Homo sapiens, UniProt P04626)
ERBB4 = ERBB4 (Homo sapiens, UniProt Q15303)
FLT3(D835H) = FLT3(D835H) (Homo sapiens, UniProt P36888, D835H)
GRK1 = GRK1 (Homo sapiens, UniProt Q15835)
GSK3B = GSK3B (Homo sapiens, UniProt P49841)
[1] = target: T2, JAK1(JH2domain-pseudokinase) (Homo sapiens, UniProt P23458)
T2 construct: JH2domain-pseudokinase

LATS2 = LATS2 (Homo sapiens, UniProt Q9NRM7)
LYN = LYN (Homo sapiens, UniProt P07948)
MAP4K4 = MAP4K4 (Homo sapiens, UniProt O95819)
NDR1 = target: T3, NDR1 (Homo sapiens, UniProt Q15208)
T3 construct: gene STK38

PAK3 = PAK3 (Homo sapiens, UniProt O75914)
PDGFRA = PDGFRA (Homo sapiens, UniProt P16234)
PRKX = PRKX (Homo sapiens, UniProt P51817)
[2] = target: T4, RPS6KA5(Kin.Dom.2-C-terminal) (Homo sapiens, UniProt O75582)
T4 construct: Kin.Dom.2-C-terminal

SNARK = target: T5, SNARK (Homo sapiens, UniProt Q9H093)
T5 construct: gene NUAK2

SNRK = SNRK (Homo sapiens, UniProt Q9NRH2)
STK36 = STK36 (Homo sapiens, UniProt Q9NRP7)
SgK110 = target: T6, SgK110 (Homo sapiens, UniProt P0C264)
T6 construct: gene SBK3

TIE1 = TIE1 (Homo sapiens, UniProt P35590)
TLK2 = TLK2 (Homo sapiens, UniProt Q86UE8)
WNK4 = WNK4 (Homo sapiens, UniProt Q96J92)
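Further: KINOMEscan kinase panel binding assay, signal normalized between DMSO as 100% and a positive control compound as 0%.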

T2 sequence (P23458 whole entry): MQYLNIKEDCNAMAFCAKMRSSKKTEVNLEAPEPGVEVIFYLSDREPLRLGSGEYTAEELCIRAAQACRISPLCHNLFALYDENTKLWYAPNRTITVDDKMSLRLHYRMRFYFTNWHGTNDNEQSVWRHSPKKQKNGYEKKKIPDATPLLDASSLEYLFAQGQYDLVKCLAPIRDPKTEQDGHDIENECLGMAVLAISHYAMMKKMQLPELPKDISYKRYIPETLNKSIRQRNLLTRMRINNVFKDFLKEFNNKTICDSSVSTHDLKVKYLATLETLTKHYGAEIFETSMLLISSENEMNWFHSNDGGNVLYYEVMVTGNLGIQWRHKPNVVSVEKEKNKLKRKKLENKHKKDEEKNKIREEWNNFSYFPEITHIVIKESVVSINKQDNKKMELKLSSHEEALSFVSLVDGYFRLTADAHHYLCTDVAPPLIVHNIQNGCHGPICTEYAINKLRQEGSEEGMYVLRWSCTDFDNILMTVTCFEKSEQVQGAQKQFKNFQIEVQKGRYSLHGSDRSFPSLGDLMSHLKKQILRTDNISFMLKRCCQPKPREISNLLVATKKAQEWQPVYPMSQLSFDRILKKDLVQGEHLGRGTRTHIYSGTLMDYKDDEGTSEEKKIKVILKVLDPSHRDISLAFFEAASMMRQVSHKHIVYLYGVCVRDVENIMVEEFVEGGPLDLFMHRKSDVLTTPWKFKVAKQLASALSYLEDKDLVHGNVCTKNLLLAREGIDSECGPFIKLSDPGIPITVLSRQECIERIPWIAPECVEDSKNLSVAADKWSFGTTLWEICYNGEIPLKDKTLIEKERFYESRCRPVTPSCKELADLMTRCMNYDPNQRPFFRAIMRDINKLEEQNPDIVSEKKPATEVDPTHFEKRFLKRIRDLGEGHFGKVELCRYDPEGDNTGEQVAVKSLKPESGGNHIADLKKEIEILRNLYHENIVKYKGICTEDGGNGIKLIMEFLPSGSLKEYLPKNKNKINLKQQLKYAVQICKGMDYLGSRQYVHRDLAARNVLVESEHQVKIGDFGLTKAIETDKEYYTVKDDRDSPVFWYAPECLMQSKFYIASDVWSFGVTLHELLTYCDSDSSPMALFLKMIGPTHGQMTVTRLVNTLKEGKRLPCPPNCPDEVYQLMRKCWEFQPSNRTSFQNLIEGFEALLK
T1 sequence (Q96D53 whole entry): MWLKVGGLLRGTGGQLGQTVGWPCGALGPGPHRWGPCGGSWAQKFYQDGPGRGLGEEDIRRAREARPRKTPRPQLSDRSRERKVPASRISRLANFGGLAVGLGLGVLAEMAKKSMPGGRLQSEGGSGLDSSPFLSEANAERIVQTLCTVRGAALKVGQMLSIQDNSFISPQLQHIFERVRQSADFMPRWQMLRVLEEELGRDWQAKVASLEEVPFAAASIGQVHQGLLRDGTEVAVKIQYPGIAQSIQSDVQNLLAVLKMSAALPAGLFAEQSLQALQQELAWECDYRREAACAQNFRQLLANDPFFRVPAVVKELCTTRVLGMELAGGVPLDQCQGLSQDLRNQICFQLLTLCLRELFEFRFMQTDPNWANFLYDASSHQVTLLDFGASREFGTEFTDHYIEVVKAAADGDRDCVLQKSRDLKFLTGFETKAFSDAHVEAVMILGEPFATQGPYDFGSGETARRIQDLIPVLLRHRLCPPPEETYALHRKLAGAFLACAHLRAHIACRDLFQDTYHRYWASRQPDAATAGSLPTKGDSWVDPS
SNRK, sequence (Q9NRH2 whole entry): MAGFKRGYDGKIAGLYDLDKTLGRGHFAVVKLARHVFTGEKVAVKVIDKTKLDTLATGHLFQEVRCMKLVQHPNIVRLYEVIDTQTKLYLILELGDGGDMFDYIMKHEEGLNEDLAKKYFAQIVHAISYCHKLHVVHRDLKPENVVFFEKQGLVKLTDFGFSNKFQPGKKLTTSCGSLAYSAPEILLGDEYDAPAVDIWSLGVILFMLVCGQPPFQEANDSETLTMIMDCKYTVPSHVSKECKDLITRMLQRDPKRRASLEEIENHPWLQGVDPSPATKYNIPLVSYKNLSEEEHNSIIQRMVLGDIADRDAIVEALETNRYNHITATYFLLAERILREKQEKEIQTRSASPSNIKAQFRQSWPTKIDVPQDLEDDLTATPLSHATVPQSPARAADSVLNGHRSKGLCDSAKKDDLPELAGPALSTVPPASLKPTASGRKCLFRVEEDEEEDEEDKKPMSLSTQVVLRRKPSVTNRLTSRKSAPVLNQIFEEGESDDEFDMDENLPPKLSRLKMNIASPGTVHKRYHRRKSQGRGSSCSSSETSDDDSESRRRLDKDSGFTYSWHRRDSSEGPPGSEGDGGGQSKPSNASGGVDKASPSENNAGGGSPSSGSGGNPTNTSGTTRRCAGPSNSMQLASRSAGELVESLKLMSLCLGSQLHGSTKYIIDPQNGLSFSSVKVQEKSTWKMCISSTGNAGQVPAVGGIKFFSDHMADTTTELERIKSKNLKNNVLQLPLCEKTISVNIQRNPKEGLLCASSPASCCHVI
ERBB2, sequence (P04626 whole entry): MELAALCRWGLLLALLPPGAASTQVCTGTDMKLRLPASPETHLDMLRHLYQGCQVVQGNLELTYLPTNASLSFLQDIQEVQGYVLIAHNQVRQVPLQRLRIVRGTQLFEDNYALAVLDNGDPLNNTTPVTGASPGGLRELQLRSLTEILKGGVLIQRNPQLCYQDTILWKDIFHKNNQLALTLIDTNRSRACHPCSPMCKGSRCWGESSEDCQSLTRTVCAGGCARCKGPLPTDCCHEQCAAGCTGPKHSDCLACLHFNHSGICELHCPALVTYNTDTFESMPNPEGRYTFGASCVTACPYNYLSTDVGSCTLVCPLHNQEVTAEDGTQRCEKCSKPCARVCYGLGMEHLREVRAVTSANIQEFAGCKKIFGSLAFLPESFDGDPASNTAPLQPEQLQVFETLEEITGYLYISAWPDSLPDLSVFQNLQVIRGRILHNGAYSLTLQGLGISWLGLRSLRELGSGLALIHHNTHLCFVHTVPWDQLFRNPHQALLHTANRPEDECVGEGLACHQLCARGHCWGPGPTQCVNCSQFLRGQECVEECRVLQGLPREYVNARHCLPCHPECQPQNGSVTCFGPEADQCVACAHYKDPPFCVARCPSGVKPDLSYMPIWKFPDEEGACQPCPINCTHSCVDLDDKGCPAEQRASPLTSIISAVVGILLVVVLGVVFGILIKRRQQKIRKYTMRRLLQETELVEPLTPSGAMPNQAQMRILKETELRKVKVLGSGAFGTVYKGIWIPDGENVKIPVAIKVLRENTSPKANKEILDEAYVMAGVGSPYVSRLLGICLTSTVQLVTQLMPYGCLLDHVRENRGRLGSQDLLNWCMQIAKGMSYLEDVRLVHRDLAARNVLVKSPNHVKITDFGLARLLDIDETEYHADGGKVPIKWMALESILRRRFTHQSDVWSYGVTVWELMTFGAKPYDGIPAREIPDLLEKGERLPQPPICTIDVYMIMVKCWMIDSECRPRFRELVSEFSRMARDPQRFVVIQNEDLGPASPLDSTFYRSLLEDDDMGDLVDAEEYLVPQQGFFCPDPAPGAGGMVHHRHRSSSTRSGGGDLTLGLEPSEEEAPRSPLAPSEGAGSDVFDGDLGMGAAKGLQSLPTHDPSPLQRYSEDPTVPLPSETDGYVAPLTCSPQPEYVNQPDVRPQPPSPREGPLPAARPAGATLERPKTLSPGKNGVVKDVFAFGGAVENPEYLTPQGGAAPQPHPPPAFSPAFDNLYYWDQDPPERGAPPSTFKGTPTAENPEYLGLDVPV
MAP4K4, sequence (O95819 whole entry): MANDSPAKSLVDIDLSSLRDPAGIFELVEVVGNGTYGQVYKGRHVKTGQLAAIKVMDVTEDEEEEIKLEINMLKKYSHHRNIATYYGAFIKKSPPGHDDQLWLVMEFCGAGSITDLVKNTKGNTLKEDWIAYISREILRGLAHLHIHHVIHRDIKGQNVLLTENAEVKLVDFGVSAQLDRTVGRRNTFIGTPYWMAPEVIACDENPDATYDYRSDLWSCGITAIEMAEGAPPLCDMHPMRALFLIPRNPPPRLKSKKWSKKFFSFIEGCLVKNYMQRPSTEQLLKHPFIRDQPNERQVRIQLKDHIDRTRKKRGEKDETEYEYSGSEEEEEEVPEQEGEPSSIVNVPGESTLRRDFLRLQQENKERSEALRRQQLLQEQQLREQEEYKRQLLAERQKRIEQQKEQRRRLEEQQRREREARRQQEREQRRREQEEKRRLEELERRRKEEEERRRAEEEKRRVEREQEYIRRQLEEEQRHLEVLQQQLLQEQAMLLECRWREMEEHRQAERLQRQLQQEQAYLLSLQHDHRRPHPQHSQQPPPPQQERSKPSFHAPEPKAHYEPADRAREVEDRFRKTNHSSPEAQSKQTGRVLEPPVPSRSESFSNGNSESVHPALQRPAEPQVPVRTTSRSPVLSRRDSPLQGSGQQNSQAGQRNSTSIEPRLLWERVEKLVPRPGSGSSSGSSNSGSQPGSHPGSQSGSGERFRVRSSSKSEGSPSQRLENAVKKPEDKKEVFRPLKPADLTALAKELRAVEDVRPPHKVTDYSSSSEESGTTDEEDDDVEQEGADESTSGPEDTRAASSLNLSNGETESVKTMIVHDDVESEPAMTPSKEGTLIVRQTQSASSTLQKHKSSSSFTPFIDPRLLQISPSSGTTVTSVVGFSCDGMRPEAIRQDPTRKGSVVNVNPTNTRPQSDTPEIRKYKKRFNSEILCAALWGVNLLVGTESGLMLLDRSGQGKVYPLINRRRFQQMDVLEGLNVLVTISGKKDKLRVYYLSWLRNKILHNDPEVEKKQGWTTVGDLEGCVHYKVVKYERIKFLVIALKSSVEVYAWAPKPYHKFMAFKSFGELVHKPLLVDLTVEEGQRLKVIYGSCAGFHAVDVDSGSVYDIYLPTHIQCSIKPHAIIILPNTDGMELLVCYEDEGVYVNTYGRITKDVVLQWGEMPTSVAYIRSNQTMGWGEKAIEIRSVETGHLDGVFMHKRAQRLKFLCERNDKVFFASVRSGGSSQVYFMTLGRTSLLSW

Compound `Cc1cnc2nc1Nc1cccc(c1)COCc1cc(ccc1OCCN1CCCC1)N2` [Compound 1] has a remaining binding at 0.1 µM (ADCK4) of 61%, a remaining binding at 0.1 µM (CAMK4) of 100% and a remaining binding at 0.1 µM (CDK3) of 91%. It also gave a remaining binding at 0.1 µM (CHEK2) of 87%, a remaining binding at 0.1 µM (ERBB2) of 96% and a remaining binding at 0.1 µM (ERBB4) of 82%. For the same compound, the remaining binding at 0.1 µM (FLT3(D835H)) was 46%, the remaining binding at 0.1 µM (GRK1) was 77% and the remaining binding at 0.1 µM (GSK3B) was 84%. The remaining binding at 0.1 µM [1] was 36%, the remaining binding at 0.1 µM (LATS2) was 100% and the remaining binding at 0.1 µM (LYN) was 92%. It also gave a remaining binding at 0.1 µM (MAP4K4) of 82%, a remaining binding at 0.1 µM (NDR1) of 87% and a remaining binding at 0.1 µM (PAK3) of 100%. For the same compound, the remaining binding at 0.1 µM (PDGFRA) was 73%, the remaining binding at 0.1 µM (PRKX) was 76% and the remaining binding at 0.1 µM [2] was 100%. For the same compound, the remaining binding at 0.1 µM (SNARK) was 36%, the remaining binding at 0.1 µM (SNRK) was 78% and the remaining binding at 0.1 µM (STK36) was 97%. The remaining binding at 0.1 µM (SgK110) was 65%, the remaining binding at 0.1 µM (TIE1) was 94% and the remaining binding at 0.1 µM (TLK2) was 100%. The remaining binding at 0.1 µM (WNK4) was 48%.
